Measured values from article PMC8283759, “A Flavoprotein Dioxygenase Steers Bacterial Tropone Biosynthesis via Coenzyme A-Ester Oxygenolysis and Ring Epoxidation” (Journal of the American Chemical Society, 2021).

Target: T1, TdaEBp (Burkholderia plantarii, UniProt A0A0B6RWE3)
T1 construct: gene BGL_1c08010; heterologously produced and purified, N-terminal GB1 (subunit B of protein G) and C-terminal polyhistidine tag
Assay: UV-vis of purified protein (c280/c450)
Assay type: binding
Conditions: loosely bound, co-purified; partial occupancy

T1 sequence (A0A0B6RWE3 entry or part of it): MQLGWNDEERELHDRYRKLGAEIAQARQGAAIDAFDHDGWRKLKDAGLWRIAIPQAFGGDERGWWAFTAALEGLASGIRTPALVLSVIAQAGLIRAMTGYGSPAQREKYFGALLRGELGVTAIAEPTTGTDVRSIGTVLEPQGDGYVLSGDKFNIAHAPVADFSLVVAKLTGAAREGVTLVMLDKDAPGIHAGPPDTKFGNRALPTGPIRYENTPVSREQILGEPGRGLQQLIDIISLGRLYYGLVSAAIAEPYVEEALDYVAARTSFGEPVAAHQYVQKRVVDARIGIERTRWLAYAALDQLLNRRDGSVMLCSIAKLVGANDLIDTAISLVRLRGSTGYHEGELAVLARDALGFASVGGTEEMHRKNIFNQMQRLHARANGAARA

Cc1cc2nc3c(=O)[nH]c(=O)nc-3n(C[C@H](O)[C@H](O)[C@H](O)COP(=O)(O)OP(=O)(O)OC[C@H]3O[C@@H](n4cnc5c(N)ncnc54)[C@H](O)[C@@H]3O)c2cc1C [FAD]
UV-vis of purified protein (c280/c450): TdaE^Bp was weakly yellow due to a loosely bound FAD cofactor
